Experimental data published in the supplement of paper PMC9663587.

Tests used:
[1] = compound: CCCCOc1c(C(=O)c2c(F)cc(C)cc2F)c[nH]c2nncc1-2
Luminespib/NVP-AUY922 = compound: CCNC(=O)c1noc(-c2cc(C(C)C)c(O)cc2O)c1-c1ccc(CN2CCOCC2)cc1 [Luminespib/NVP-AUY922]
THZ-P1-2 = compound: CN(C)C/C=C/C(=O)NC1=CC=C(C=C1)C(=O)NC2=CC=CC(=C2)NC3=NC=NC(=C3)C4=CNC5=CC=CC=C54 [THZ-P1-2]
BSJ-01-175 = compound: CN(C)C/C=C/C(=O)Nc1ccc(O[C@@H]2CCC[C@@H](Nc3ncc(Cl)c(-c4c[nH]c5ccccc45)n3)C2)cc1 [BSJ-01-175]
Saracatinib/AZD0530 = compound: CN1CCN(CCOc2cc(OC3CCOCC3)c3c(Nc4c(Cl)ccc5c4OCO5)ncnc3c2)CC1 [Saracatinib/AZD0530]
Ceritinib/LDK378 = compound: Cc1cc(Nc2ncc(Cl)c(Nc3ccccc3S(=O)(=O)C(C)C)n2)c(OC(C)C)cc1C1CCNCC1 [Ceritinib/LDK378]
YKL-5-124 = compound: C=CC(=O)Nc1ccc(C(=O)Nc2[nH]nc3c2CN(C(=O)N[C@H](CN(C)C)c2ccccc2)C3(C)C)cc1 [YKL-5-124]; test: increase in dead-cell fraction, 72 h; higher = more death;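 also: breast cancer cell lines in 384-well plates, stained with Hoechst plus LIVE/DEAD far red dye and imaged, cells above an LDR intensity threshold counted dead, Hoechst-negative corpses included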
BSJ-03-123 = compound: CC(=O)c1c(C)c2cnc(Nc3ccc(N4CCN(CCOCCOCCOCCNC(=O)COc5cccc6c5C(=O)N(C5CCC(=O)NC5=O)C6=O)CC4)cn3)nc2n(C2CCCC2)c1=O [BSJ-03-123]; test: as above
[2] = compound: CC(=O)c1c(C)c2cnc(Nc3ccc(N4CCNCC4)cn3)nc2n(C2CCCC2)c1=O; test: as above
[3] = compound: CCN1CCN(Cc2ccc(Nc3ncc(F)c(-c4cc(F)c5nc(C)n(C(C)C)c5c4)n3)nc2)CC1; test: as above
Neratinib/HKI272 = compound: CCOc1cc2ncc(C#N)c(Nc3ccc(OCc4ccccn4)c(Cl)c3)c2cc1NC(=O)/C=C/CN(C)C [Neratinib/HKI272]; test: as above
[4] = compound: CCc1cnn2c(NCc3ccc[n+]([O-])c3)cc(N3CCCC[C@H]3CCO)nc12; test: as above
LEE011/Ribociclib = compound: CN(C)C(=O)c1cc2cnc(Nc3ccc(N4CCNCC4)cn3)nc2n1C1CCCC1 [LEE011/Ribociclib]; test: as above
THZ531 = compound: CN(C)C/C=C/C(=O)Nc1ccc(C(=O)N2CCC[C@@H](Nc3ncc(Cl)c(-c4c[nH]c5ccccc45)n3)C2)cc1 [THZ531]; test: as above
THZ1 = compound: CN(C)C/C=C/C(=O)Nc1ccc(C(=O)Nc2cccc(Nc3ncc(Cl)c(-c4c[nH]c5ccccc45)n3)c2)cc1 [THZ1]; test: as above
Flavopiridol = compound: CN1CC[C@H](c2c(O)cc(O)c3c(=O)cc(-c4ccccc4Cl)oc23)[C@H](O)C1 [Flavopiridol]; test: as above
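For GR50, 72 h in this document: breast cancer and non-malignant breast epithelial cell lines, Deep Dye Drop or Dye Drop imaging, nine half-log doses, GR normalized to time-zero plates and DMSO-only controls.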

Cell Line: EVSAT
- GR50, 72 h [1]: 1.45 µM
- GR50, 72 h (Luminespib/NVP-AUY922): 0.00716 µM
- GR50, 72 h (THZ-P1-2): > 10 µM
- GR50, 72 h (BSJ-01-175): 0.146 µM
- GR50, 72 h (Saracatinib/AZD0530): 2.69 µM
- GR50, 72 h (Ceritinib/LDK378): 6.18 µM
- increase in dead-cell fraction (YKL-5-124; 0.001 µM): 0.0967
- increase in dead-cell fraction (YKL-5-124; 0.003162 µM): 0.0973
- increase in dead-cell fraction (YKL-5-124; 0.01 µM): 0.147
- increase in dead-cell fraction (YKL-5-124; 0.03162 µM): 0.16
- increase in dead-cell fraction (YKL-5-124; 0.1 µM): 0.143
- increase in dead-cell fraction (YKL-5-124; 0.3162 µM): 0.185
- increase in dead-cell fraction (YKL-5-124; 1 µM): 0.183
- increase in dead-cell fraction (YKL-5-124; 3.162 µM): 0.204
- increase in dead-cell fraction (YKL-5-124; 10 µM): 0.697
- increase in dead-cell fraction (BSJ-03-123; 0.001 µM): -0.0001
- increase in dead-cell fraction (BSJ-03-123; 0.003162 µM): 0.0011
- increase in dead-cell fraction (BSJ-03-123; 0.01 µM): 0.0093
- increase in dead-cell fraction (BSJ-03-123; 0.03162 µM): 0.0004
- increase in dead-cell fraction (BSJ-03-123; 0.1 µM): 0.0074
- increase in dead-cell fraction (BSJ-03-123; 0.3162 µM): -0.0005
- increase in dead-cell fraction (BSJ-03-123; 1 µM): 0.0163
- increase in dead-cell fraction (BSJ-03-123; 3.162 µM): 0.0309
- increase in dead-cell fraction (BSJ-03-123; 10 µM): 0.221
- increase in dead-cell fraction ([2]; 0.0003162 µM): 0.0003
- increase in dead-cell fraction ([2]; 0.001 µM): -0.0039
- increase in dead-cell fraction ([2]; 0.003162 µM): -0.002
- increase in dead-cell fraction ([2]; 0.01 µM): -0.0026
- increase in dead-cell fraction ([2]; 0.03162 µM): 0.0033
- increase in dead-cell fraction ([2]; 0.1 µM): 0.0048
- increase in dead-cell fraction ([2]; 0.3162 µM): 0.0108
- increase in dead-cell fraction ([2]; 1 µM): 0.0176
- increase in dead-cell fraction ([2]; 3.162 µM): 0.0205
- increase in dead-cell fraction ([3]; 0.001 µM): -0.0003
- increase in dead-cell fraction ([3]; 0.003162 µM): -0.0008
- increase in dead-cell fraction ([3]; 0.01 µM): -0.0013
- increase in dead-cell fraction ([3]; 0.03162 µM): 0.0044
- increase in dead-cell fraction ([3]; 0.1 µM): 0.0048
- increase in dead-cell fraction ([3]; 0.3162 µM): 0.0122
- increase in dead-cell fraction ([3]; 1 µM): 0.0226
- increase in dead-cell fraction ([3]; 3.162 µM): 0.0299
- increase in dead-cell fraction ([3]; 10 µM): 0.798
- increase in dead-cell fraction (Neratinib/HKI272; 0.0003162 µM): -0.0012
- increase in dead-cell fraction (Neratinib/HKI272; 0.001 µM): -0.002
- increase in dead-cell fraction (Neratinib/HKI272; 0.003162 µM): -0.0011
- increase in dead-cell fraction (Neratinib/HKI272; 0.01 µM): -0.0031
- increase in dead-cell fraction (Neratinib/HKI272; 0.03162 µM): -0.0026
- increase in dead-cell fraction (Neratinib/HKI272; 0.1 µM): -0.0027
- increase in dead-cell fraction (Neratinib/HKI272; 0.3162 µM): -0.002
- increase in dead-cell fraction (Neratinib/HKI272; 1 µM): 0.0019
- increase in dead-cell fraction (Neratinib/HKI272; 3.162 µM): 0.0083
- increase in dead-cell fraction ([4]; 0.0001 µM): -0.0004
- increase in dead-cell fraction ([4]; 0.0003162 µM): 0.0006
- increase in dead-cell fraction ([4]; 0.001 µM): 0.0006
- increase in dead-cell fraction ([4]; 0.003162 µM): -0.003
- increase in dead-cell fraction ([4]; 0.01 µM): -0.0037
- increase in dead-cell fraction ([4]; 0.03162 µM): 0.107
- increase in dead-cell fraction (LEE011/Ribociclib; 0.001 µM): 0.0012
- increase in dead-cell fraction (LEE011/Ribociclib; 0.003162 µM): 0.0024
- increase in dead-cell fraction (LEE011/Ribociclib; 0.01 µM): 0.0001
- increase in dead-cell fraction (LEE011/Ribociclib; 0.03162 µM): 0.0046
- increase in dead-cell fraction (LEE011/Ribociclib; 0.1 µM): 0.0067
- increase in dead-cell fraction (LEE011/Ribociclib; 0.3162 µM): 0.0048
- increase in dead-cell fraction (LEE011/Ribociclib; 1 µM): 0.0025
- increase in dead-cell fraction (LEE011/Ribociclib; 3.162 µM): 0.0016
- increase in dead-cell fraction (LEE011/Ribociclib; 10 µM): 0.0146
- increase in dead-cell fraction (THZ531; 0.0001 µM): 0.0033
- increase in dead-cell fraction (THZ531; 0.0003162 µM): -0.0022
- increase in dead-cell fraction (THZ531; 0.001 µM): -0.0014
- increase in dead-cell fraction (THZ531; 0.003162 µM): -0.0011
- increase in dead-cell fraction (THZ531; 0.01 µM): 0.0002
- increase in dead-cell fraction (THZ531; 0.03162 µM): -0.0005
- increase in dead-cell fraction (THZ531; 0.1 µM): 0.0333
- increase in dead-cell fraction (THZ531; 0.3162 µM): 0.372
- increase in dead-cell fraction (THZ1; 0.0001 µM): -0.0011
- increase in dead-cell fraction (THZ1; 0.0003162 µM): 0.0011
- increase in dead-cell fraction (THZ1; 0.001 µM): 0.0012
- increase in dead-cell fraction (THZ1; 0.003162 µM): 0.0031
- increase in dead-cell fraction (THZ1; 0.01 µM): 0.0078
- increase in dead-cell fraction (THZ1; 0.03162 µM): 0.0292
- increase in dead-cell fraction (THZ1; 0.1 µM): 0.181
- increase in dead-cell fraction (THZ1; 0.3162 µM): 0.641
- increase in dead-cell fraction (Flavopiridol; 0.0001 µM): 0
- increase in dead-cell fraction (Flavopiridol; 0.0003162 µM): -0.0027
- increase in dead-cell fraction (Flavopiridol; 0.001 µM): -0.0029
- increase in dead-cell fraction (Flavopiridol; 0.003162 µM): 0.0039
- increase in dead-cell fraction (Flavopiridol; 0.01 µM): 0.0011
- increase in dead-cell fraction (Flavopiridol; 0.03162 µM): 0.0016
- increase in dead-cell fraction (Flavopiridol; 0.1 µM): 0.0006
- increase in dead-cell fraction (Flavopiridol; 0.3162 µM): 0.0111
- increase in dead-cell fraction (Flavopiridol; 1 µM): 0.85
